Measurements published in patent US20150005288A1, “SUBSTITUTED PHENYLIMIDAZOPYRAZOLES AND USE THEREOF” (Bayer Intellectual Property GmbH, priority 2012, published 2015).

Target: T1, intracellular domain of human Tie2 (GST fusion protein) (Homo sapiens, UniProt Q02763)
T1 construct: intracellular domain of human Tie2 (amino acids 776-1124); made in house; host or cells: Baculovirus-infected insect cells (Hi5)
Test: Tie2 kinase assay (Tie2-TR-FRET)
Assay type: biochemical
Conditions: ATP concentration 1 mM, in some cases means of several independent determinations
Description: The Tie2-inhibitory activity of the substances according to the invention was determined with the aid of one of the Tie2-TR-FRET assays described in the sections below at an ATP concentration of 1 mM (TR-FRET=Time-Resolved Fluorescence Resonance Energy Transfer):
The enzyme used was a recombinant fusion protein of glutathione S-transferase (GST) and the intracellular domain of human Tie2 (amino acids 776-1124) which was expressed in Baculovirus-infected insect cells (Hi5) and was purified by affinity chromatography on glutathione-Sepharose. Alternatively, it is also possible to use commercially available GST-His6-Tie2 fusion protein (ProQinase GmbH, Freiburg im Breisgau, Germany). The substrate used for the kinase reaction was the biotinylated peptide biotin-Ahx-[…] (C-terminus in amide form) which is commercially available (for example from Biosyntan, Berlin, Germany).
For the assay, 50 nl of a 100-fold concentrated solution of the respective test substance in DMSO were pipetted into a black low-volume 384-well microtitre plate (Greiner Bio-One, Frickenhausen, Germany) 2 μl of a solution of the Tie2 fusion protein in assay buffer [50 mM HEPES/HCl pH 7, 10 mM MgCl2, 2.5 mM MnCl2, 1 mM dithiothreitol, 0.01% (v/v) Nonidet P-40, 0.1% (w/v) bovine serum albumin (BSA), 1× Complete EDTA-free protease inhibitor mixture (Roche)] were added, and the mixture was incubated for 15 min to allow pre-binding of the substance to the enzyme prior to the kinase reaction. The kinase reaction was then started by adding 3 μl of a solution of adenosine triphosphate (ATP, 1.67 mM→final concentration in 5 μl assay volume=1 mM) and substrate (1.67 μM→final concentration in 5 μl assay volume=1 μM) in assay buffer, and the resulting mixture was incubated for a reaction time of 60 min at 22° C. The concentration of the Tie2 fusion protein was adapted to the respective activity of the enzyme and adjusted such that the assay was carried out in the linear range. Typical concentrations were in the range of 30 ng/ml.
The reaction was stopped by addition of 5 μl of a solution of TR-FRET detection reagents [200 nM streptavidin-XL665 and 2 nM PT66-Eu chelate, a europium chelate-labelled anti-phosphotyrosine antibody (Perkin-Elmer); alternatively, it is also possible to use PT66-Tb cryptate (Cisbio Bioassays, Codolet, France)] in aqueous EDTA solution[90 mM EDTA, 0.28% (w/v) bovine serum albumin (BSA) in 50 mM HEPES pH 7.5]. The resulting mixture was incubated at 22° C. for 1 h to allow formation of the complex of the biotinylated phosphorylated substrate and the detection reagents. The amount of phosphorylated substrate was then determined by measuring the resonance energy transfer from PT66-Eu chelate to streptavidin-XL665. To this end, the fluorescence emissions at 620 nm and 665 nm after excitation at 350 nm were measured in a TR-FRET measuring instrument (for example Viewlux, Perkin-Elmer). The ratio of the emissions at 665 nm and at 620 nm was taken as a measure of the amount of phosphorylated substrate.
Usually, the test substance in question was tested on the same microtitre plate at […] different concentrations in the range from 20 μM to 0.073 nM (for example at 20 μM, 5.7 μM, 1.6 μM, 0.47 μM, 0.13 μM, 38 nM, 11 nM, 3.1 nM, 0.89 nM, 0.25 nM and 0.073 nM) in duplicate for each concentration. The dilution series were prepared prior to the assay at the stage of the 100-fold concentrated solution by serial dilution (the exact concentrations may vary depending on the pipettors used in each case). IC50 values were calculated using a 4-parameter fit, with the aid of inhouse software.
Table 1 below lists the IC50 values from this assay for individual working examples (in some cases as means of several independent individual determinations): […]

T1 sequence (Q02763 776-1124): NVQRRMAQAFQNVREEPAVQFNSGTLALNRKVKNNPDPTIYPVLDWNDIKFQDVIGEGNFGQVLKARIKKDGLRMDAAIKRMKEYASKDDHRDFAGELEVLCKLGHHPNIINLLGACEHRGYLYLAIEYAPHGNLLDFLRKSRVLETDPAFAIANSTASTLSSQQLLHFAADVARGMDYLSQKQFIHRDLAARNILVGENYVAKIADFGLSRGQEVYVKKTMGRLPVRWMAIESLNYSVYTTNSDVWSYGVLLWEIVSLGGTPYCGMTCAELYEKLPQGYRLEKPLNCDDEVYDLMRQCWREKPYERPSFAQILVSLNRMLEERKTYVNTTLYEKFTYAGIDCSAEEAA

Cc1ccc(NC(=O)c2cccc(C(F)(F)F)c2F)cc1-n1ccn2nc(-c3cccnc3)cc12 [Example 46, 2-Fluoro-N-{4-methyl-3-[6-(pyridin-3-yl)-1H-imidazo[1,2-b]pyrazol-1-yl]phenyl}-3-(trifluoromethyl)benzamide]
IC50: 980 nM

Cc1ccc(NC(=O)c2cc(-n3ccnc3C)cc(C(C)(C)C)c2)cc1-n1ccn2nc(-c3cccnc3)cc12 [Example 47, 3-tert-Butyl-5-(2-methyl-1H-imidazol-1-yl)-N-{4-methyl-3-[6-(pyridin-3-yl)-1H-imidazo[1,2-b]-pyrazol-1-yl]phenyl}benzamide]
IC50: 0.3 nM

Cc1ccc(NC(=O)c2cc(C(C)(C)C)cc(C(C)(C)O)c2)cc1-n1ccn2nc(-c3cccnc3)cc12 [Example 49, 3-tert-Butyl-5-(2-hydroxypropan-2-yl)-N-{4-methyl-3-[6-(pyridin-3-yl)-1H-imidazo[1,2-b]-pyrazol-1-yl]phenyl}benzamide]
IC50: 0.3 nM

Cc1ccc(NC(=O)c2cc(C#N)cc(C(C)(C)C)c2)cc1-n1ccn2nc(-c3cccnc3)cc12 [Example 50, 3-tert-Butyl-5-cyano-N-{4-methyl-3-[6-(pyridin-3-yl)-1H-imidazo[1,2-b]pyrazol-1-yl]phenyl}-benzamide]
IC50: 1.2 nM

Cc1cc(C)cc(C(=O)Nc2ccc(C)c(-n3ccn4nc(-c5cccnc5)cc34)c2)c1 [Example 52, 3,5-Dimethyl-N-{4-methyl-3-[6-(pyridin-3-yl)-1H-imidazo[1,2-b]pyrazol-1-yl]phenyl}benzamide]
IC50: 230 nM

Cc1ccc(NC(=O)c2cc(C(C)C)ccc2O)cc1-n1ccn2nc(-c3cccnc3)cc12 [Example 53, 2-Hydroxy-N-{4-methyl-3-[6-(pyridin-3-yl)-1H-imidazo[1,2-b]pyrazol-1-yl]phenyl}-5-(propan-2-yl)benzamide]
IC50: 340 nM

Cc1ccc(NC(=O)c2cccc(-c3cccc(C#N)c3)c2)cc1-n1ccn2nc(-c3cccnc3)cc12 [Example 54, 3′-Cyano-N-{4-methyl-3-[6-(pyridin-3-yl)-1H-imidazo[1,2-b]pyrazol-1-yl]phenyl}biphenyl-3-carboxamide]
IC50: 670 nM

Cc1ccc(NC(=O)c2cccc(-n3cccn3)c2)cc1-n1ccn2nc(-c3cccnc3)cc12 [Example 55, N-{4-Methyl-3-[6-(pyridin-3-yl)-1H-imidazo[1,2-b]pyrazol-1-yl]phenyl}-3-(1H-pyrazol-1-yl)-benzamide]
IC50: 275 nM

Cc1ccc(NC(=O)c2cccc(N3CCCC3)c2)cc1-n1ccn2nc(-c3cccnc3)cc12 [Example 56, N-{4-Methyl-3-[6-(pyridin-3-yl)-1H-imidazo[1,2-b]pyrazol-1-yl]phenyl}-3-(pyrrolidin-1-yl)-benzamide]
IC50: 52 nM

Cc1ccc(NC(=O)c2cc(N3CCCC3)ccc2Cl)cc1-n1ccn2nc(-c3cccnc3)cc12 [Example 57, 2-Chloro-N-{4-methyl-3-[6-(pyridin-3-yl)-1H-imidazo[1,2-b]pyrazol-1-yl]phenyl}-5-(pyrrolidin-1-yl)benzamide]
IC50: 995 nM

Cc1ccc(NC(=O)c2ccc(Cl)c(N3CCCCC3)c2)cc1-n1ccn2nc(-c3cccnc3)cc12 [Example 58, 4-Chloro-N-{4-methyl-3-[6-(pyridin-3-yl)-1H-imidazo[1,2-b]pyrazol-1-yl]phenyl}-3-(piperidin-1-yl)benzamide]
IC50: 330 nM

Cc1ccc(NC(=O)c2cccc(N(C)C)c2)cc1-n1ccn2nc(-c3cccnc3)cc12 [Example 59, 3-(Dimethylamino)-N-{4-methyl-3-[6-(pyridin-3-yl)-1H-imidazo[1,2-b]pyrazol-1-yl]phenyl}-benzamide]
IC50: 600 nM

Cc1ccc(NC(=O)c2cccc(OC(C)C)c2)cc1-n1ccn2nc(-c3cccnc3)cc12 [Example 60, N-{4-Methyl-3-[6-(pyridin-3-yl)-1H-imidazo[1,2-b]pyrazol-1-yl]phenyl}-3-(propan-2-yloxy)-benzamide]
IC50: 125 nM

CCCOc1cccc(C(=O)Nc2ccc(C)c(-n3ccn4nc(-c5cccnc5)cc34)c2)c1 [Example 61, N-{4-Methyl-3-[6-(pyridin-3-yl)-1H-imidazo[1,2-b]pyrazol-1-yl]phenyl}-3-propoxybenzamide]
IC50: 260 nM

Cc1ccc(NC(=O)c2cccc(OCC(C)C)c2)cc1-n1ccn2nc(-c3cccnc3)cc12 [Example 62, 3-(2-Methylpropoxy)-N-{4-methyl-3-[6-(pyridin-3-yl)-1H-imidazo[1,2-b]pyrazol-1-yl]phenyl}-benzamide]
IC50: 500 nM

COc1cc(OC)cc(C(=O)Nc2ccc(C)c(-n3ccn4nc(-c5cccnc5)cc34)c2)c1 [Example 63, 3,5-Dimethoxy-N-{4-methyl-3-[6-(pyridin-3-yl)-1H-imidazo[1,2-b]pyrazol-1-yl]phenyl}benzamide]
IC50: 770 nM

Cc1ccc(NC(=O)c2ccnc(C(C)(C)C)c2)cc1-n1ccn2nc(-c3cccnc3)cc12 [Example 64, 2-tert-Butyl-N-{4-methyl-3-[6-(pyridin-3-yl)-1H-imidazo[1,2-b]pyrazol-1-yl]phenyl}isonicotinamide]
IC50: 41 nM

Cc1ccc(NC(=O)c2cc(Cl)nc(C(C)(C)C)c2)cc1-n1ccn2nc(-c3cccnc3)cc12 [Example 65, 2-tert-Butyl-6-chloro-N-{4-methyl-3-[6-(pyridin-3-yl)-1H-imidazo[1,2-b]pyrazol-1-yl]phenyl}isonicotinamide]
IC50: 57 nM

Cc1ccc(NC(=O)c2ccnc(N3CCCC3)c2)cc1-n1ccn2nc(-c3cccnc3)cc12 [Example 67, N-{4-Methyl-3-[6-(pyridin-3-yl)-1H-imidazo[1,2-b]pyrazol-1-yl]phenyl}-2-(pyrrolidin-1-yl)-pyridine-4-carboxamide]
IC50: 57 nM

Cc1ccc(NC(=O)c2ccnc(N3CCCCC3)c2)cc1-n1ccn2nc(-c3cccnc3)cc12 [Example 68, N-{4-Methyl-3-[6-(pyridin-3-yl)-1H-imidazo[1,2-b]pyrazol-1-yl]phenyl}-2-(piperidin-1-yl)-pyridine-4-carboxamide]
IC50: 71 nM

Cc1ccc(NC(=O)c2ccnc(N3CCOCC3)c2)cc1-n1ccn2nc(-c3cccnc3)cc12 [Example 69, N-{4-Methyl-3-[6-(pyridin-3-yl)-1H-imidazo[1,2-b]pyrazol-1-yl]phenyl}-2-(morpholin-4-yl)-pyridine-4-carboxamide]
IC50: 580 nM

O=C(Nc1ccc(F)c(-n2ccn3nc(-c4cccnc4)cc23)c1)c1cccc(S(F)(F)(F)(F)F)c1 [Example 70, N-{4-Fluoro-5-[6-(pyridin-3-yl)-1H-imidazo[1,2-b]pyrazol-1-yl]phenyl}-3-(pentafluoro-λ^6-sulphanyl)benzamide]
IC50: 105 nM

N#Cc1cc(C(=O)Nc2ccc(F)c(-n3ccn4nc(-c5cccnc5)cc34)c2)cc(S(F)(F)(F)(F)F)c1 [Example 71, 3-Cyano-N-{4-fluoro-5-[6-(pyridin-3-yl)-1H-imidazo[1,2-b]pyrazol-1-yl]phenyl}-3-(pentafluoro-λ^6-sulphanyl)benzamide]
IC50: 34 nM

COc1ccc(NC(=O)c2cccc(S(F)(F)(F)(F)F)c2)cc1-n1ccn2nc(-c3cccnc3)cc12 [Example 72, N-{4-Methoxy-3-[6-(pyridin-3-yl)-1H-imidazo[1,2-b]pyrazol-1-yl]phenyl}-3-(pentafluoro-λ^6-sulphanyl)benzamide]
IC50: 350 nM

Cc1ccc(-n2ccn3nc(-c4cccnc4)cc23)cc1NC(=O)c1cccc(S(F)(F)(F)(F)F)c1 [Example 76, N-{2-Methyl-5-[6-(pyridin-3-yl)-1H-imidazo[1,2-b]pyrazol-1-yl]phenyl}-3-(pentafluoro-λ^6-sulphanyl)benzamide]
IC50: 82 nM

Cc1ccc(-n2ccn3nc(-c4cccnc4)cc23)cc1NC(=O)c1cc(Br)cc(C(C)(C)C)c1 [Example 78]
IC50: 115 nM
